Test results from patent US12234224B2, “Pyrimidine and pyridine amine compounds and usage thereof in disease treatment” (Epigen Biosciences, Inc., priority 2021, dated 2025).

Target: T1, Recombinant human p70S6K kinase (Homo sapiens, UniProt P23443)
T1 construct: purchased ThermoFisher Scientific PV3815
Assay: S6K Enzymatic Inhibition Assay (HotSpot kinase assay; called S6K binding assay in Table 2)
Assay type: biochemical
Details: IC50 class
Description: Enzymatic activity was determined using a commercial HotSpot kinase assay. Recombinant human p70S6K kinase was purchased from ThermoFisher Scientific (cat #PV3815). The substrate S6K/RSK2 peptide 2 was synthesized at Genscript [Piscataway, NJ]. In brief, the substrate was prepared in the reaction buffer [20 mM Hepes (pH 7.5), 10 mM MgCl2, 1 mM EGTA, 0.02% Brij35, 0.02 mg/mL BSA, 0.1 mM Na3VO4, 2 mM DTT, 1% DMSO]. Testing compounds were dissolved in 100% DMSO and a serial dilution was conducted in DMSO. The kinase at final concentration of 3 nM was added into the substrate solution and gently mixed. Test compounds were delivered at the appropriate concentrations into the kinase reaction mixture by Echo550, and incubated for 20 minutes at room temperature. ^33P-ATP (Specific activity 10 μCi/μL) was added into the reaction mixture to initiate the reaction. Assay plates were incubated for 2 hours at room temperature. The radioactivity was detected by filter-binding method. Kinase activity data is expressed as the percent remaining kinase activity in test samples compared to vehicle (DMSO) reactions. IC50 curves were plotted and IC50 values were calculated using the GraphPad Prism 4 program based on a sigmoidal dose-response equation.

T1 sequence (P23443 whole entry): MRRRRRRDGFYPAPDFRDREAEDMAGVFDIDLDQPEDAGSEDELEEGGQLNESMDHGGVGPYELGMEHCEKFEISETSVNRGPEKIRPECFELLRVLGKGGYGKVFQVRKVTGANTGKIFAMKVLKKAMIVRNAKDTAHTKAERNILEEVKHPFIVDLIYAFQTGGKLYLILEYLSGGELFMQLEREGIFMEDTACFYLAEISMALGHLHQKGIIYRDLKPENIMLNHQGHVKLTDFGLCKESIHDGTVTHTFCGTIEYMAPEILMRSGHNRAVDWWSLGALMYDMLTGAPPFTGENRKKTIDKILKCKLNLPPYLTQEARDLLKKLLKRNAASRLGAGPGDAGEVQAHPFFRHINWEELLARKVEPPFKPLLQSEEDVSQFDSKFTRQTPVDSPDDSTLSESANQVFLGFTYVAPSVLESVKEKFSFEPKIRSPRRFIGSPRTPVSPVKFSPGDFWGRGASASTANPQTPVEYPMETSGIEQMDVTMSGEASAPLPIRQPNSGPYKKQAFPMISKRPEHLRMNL

CN(C)C(=O)C(c1ccccc1)n1cc(-c2ncnc(N)c2-c2ccc(Cl)cc2)cn1 (racemic) [Example 9, (±)-N,N-Dimethyl{4-[6-amino-5-(p-chlorophenyl)-4-pyrimidinyl]-1H-pyrazol-1-yl}phenylacetamide]
IC50: 50 to 500 nM

Nc1ncnc(-n2cc(Cc3ccccc3)cn2)c1-c1ccc(Cl)cc1 [Example 23, 6-(4-Benzyl-1H-pyrazol-1-yl)-5-(p-chlorophenyl)-4-pyrimidinylamine]
IC50: 50 to 500 nM

Nc1ncnc(-c2cnn(Cc3ccc(OC(F)(F)F)cc3)c2)c1-c1ccc(Cl)cc1 [Example 20, 5-(p-Chlorophenyl)-6-{1-[(p-trifluoromethoxyphenyl)methyl]-1H-pyrazol-4-yl}-4-pyrimidinylamine]
IC50: < 50 nM

NCC(c1ccccc1)n1cc(-c2ncnc(N)c2-c2ccc(Cl)cc2)cn1 (racemic) [Example 6, (±)-6-[1-(2-Amino-1-phenylethyl)-1H-pyrazol-4-yl]-5-(p-chlorophenyl)-4-pyrimidinamine]
IC50: < 50 nM

Nc1ncnc(-c2cnn(Cc3ccc(F)cc3F)c2)c1-c1ccc(Cl)cc1 [Example 19, 5-(p-Chlorophenyl)-6-{1-[(2,4-difluorophenyl)methyl]-1H-pyrazol-4-yl}-4-pyrimidinylamine]
IC50: < 50 nM

Nc1cc(-c2cnn(Cc3ccc(C(F)(F)F)cc3)c2)c(Cl)cn1 [Example 37, 5-Chloro-4-(1-{[p-(trifluoromethyl)phenyl]methyl}-1H-pyrazol-4-yl)-2-pyridylamine]
IC50: 500 to 10000 nM

C=C(c1ccccc1)n1cc(-c2ncnc(N)c2-c2ccc(Cl)cc2)cn1 [Example 7, 5-(p-Chlorophenyl)-6-[1-(1-phenylethenyl)-1H-pyrazol-4-yl]-4-pyrimidinylamine]
IC50: < 50 nM

Nc1ncnc(-c2cnn(C(CO)c3ccccc3)c2)c1-c1ccc(Cl)cc1 (racemic) [Example 5, (±)-2-{4-[6-Amino-5-(p-chlorophenyl)-4-pyrimidinyl]-1H-pyrazol-1-yl}-2-phenylethanol]
IC50: < 50 nM

Nc1ncnc(-c2cnn(Cc3ccc(F)cc3)c2)c1-c1ccc(Cl)cc1 [Example 18, 5-(p-Chlorophenyl)-6-{1-[(p-fluorophenyl)methyl]-1H-pyrazol-4-yl}-4-pyrimidinylamine]
IC50: < 50 nM

Nc1nccc(-c2cnn(Cc3ccc(C(F)(F)F)cc3)c2)c1-c1ccc(Cl)cc1 [Example 39, 3-(p-Chlorophenyl)-4-(1-{[p-(trifluoromethyl)phenyl]methyl}-1H-pyrazol-4-yl)-2-pyridylamine]
IC50: < 50 nM

Nc1ncnc(-c2cnn(-c3cccc(Cl)c3)c2)c1-c1ccc(Cl)cc1 [Example 12, 5-(p-Chlorophenyl)-6-[1-(m-chlorophenyl)-1H-pyrazol-4-yl]-4-pyrimidinylamine]
IC50: 500 to 10000 nM
